Measurements as given in paper PMC8174729, “Inhibition of CMP-sialic acid transport by endogenous 5-methyl CMP” (PLoS ONE, 2021).

Assays:
[1] = molecular target: T1, CMP-sialic acid transporter (CST) (Mus musculus, UniProt Q61420); test: FSEC thermal shift binding assay with Kd (also inhibits [3H]CMP-Sia uptake in Sf9 cells, IC50 […]); design: gene Slc35a1; Full-length, GFP-tagged mouse CST
T1 sequence (Q61420 1-336): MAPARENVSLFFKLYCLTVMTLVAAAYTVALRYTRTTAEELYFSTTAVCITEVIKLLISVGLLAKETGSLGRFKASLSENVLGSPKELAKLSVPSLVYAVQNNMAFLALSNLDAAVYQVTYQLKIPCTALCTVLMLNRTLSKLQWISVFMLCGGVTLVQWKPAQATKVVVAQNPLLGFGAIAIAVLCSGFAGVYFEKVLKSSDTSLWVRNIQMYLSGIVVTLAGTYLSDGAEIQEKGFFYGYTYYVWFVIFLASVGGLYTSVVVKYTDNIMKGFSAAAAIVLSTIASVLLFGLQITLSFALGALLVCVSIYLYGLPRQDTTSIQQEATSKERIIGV

[2] = molecular target: T1, CMP-sialic acid transporter (CST); test: X-ray crystal structure at […] Å; FSEC thermal shift binding assay with Kd (also inhibits [3H]CMP-Sia uptake in Sf9 cells, IC50 […]); design: gene Slc35a1; Kd: full-length, GFP-tagged mouse CST; crystal: CSTΔC construct, which lacks the last 15 residues (322–336)

Structure (SMILES)	Kd [1] [µM]	Kd [2] [µM]
Nc1ccn([C@@H]2O[C@H](COP(=O)(O)O)[C@@H](O)[C@H]2O)c(=O)n1 [CMP]	16.1	
Cc1cn([C@@H]2O[C@H](COP(=O)(O)O)[C@@H](O)[C@H]2O)c(=O)nc1N [m5CMP, 5-methyl CMP]		1
